Data from article PMC11822212, “High-throughput screening identifies Aurora kinase B as a critical therapeutic target for Merkel cell carcinoma” (Nature Communications, 2025).
Read-outs that look alike come from different tables or passages of the source.

Assays:
Assay in all cases: qHTS cell viability (CellTiter-Glo, 72 h; primary and follow-up small molecule screen)
Format in all cases: cell-based, human
WAGA cells (VP-MCC) = system: WAGA cells (VP-MCC)
MCC13 cells (VN-MCC) = system: MCC13 cells (VN-MCC)
UISO cells (VN-MCC) = system: UISO cells (VN-MCC)
MKL-1 cells (VP-MCC) = system: MKL-1 cells (VP-MCC)
MKL-2 cells (VP-MCC) = system: MKL-2 cells (VP-MCC)
MCC26 cells (VN-MCC) = system: MCC26 cells (VN-MCC)
[1] = follow-up screen, WAGA, replicate 1
[2] = follow-up screen, WAGA, replicate 2
[3] = follow-up screen, WAGA, replicate 3
[4] = follow-up screen, MCC13, replicate 1
[5] = follow-up screen, MCC13, replicate 2
[6] = follow-up screen, MCC13, replicate 3
[7] = follow-up screen, UISO, replicate 1
[8] = follow-up screen, UISO, replicate 2
[9] = follow-up screen, UISO, replicate 3
[10] = follow-up screen, MKL-1, replicate 1
[11] = follow-up screen, MKL-1, replicate 2
[12] = follow-up screen, MKL-1, replicate 3
[13] = follow-up screen, MKL-2, replicate 1
[14] = follow-up screen, MKL-2, replicate 2
[15] = follow-up screen, MKL-2, replicate 3
[16] = follow-up screen, MCC26, replicate 1
[17] = follow-up screen, MCC26, replicate 2
[18] = follow-up screen, MCC26, replicate 3

Compound	Area under the dose-response curve (AUC) WAGA Replicate 1 (WAGA cells (VP-MCC); [1])	Area under the dose-response curve (AUC) WAGA Replicate 2 (WAGA cells (VP-MCC); [2])	Area under the dose-response curve (AUC) WAGA Replicate 3 (WAGA cells (VP-MCC); [3])	Area under the dose-response curve (AUC) MCC13 Replicate 1 (MCC13 cells (VN-MCC); [4])	Area under the dose-response curve (AUC) MCC13 Replicate 2 (MCC13 cells (VN-MCC); [5])	Area under the dose-response curve (AUC) MCC13 Replicate 3 (MCC13 cells (VN-MCC); [6])	Area under the dose-response curve (AUC) UISO Replicate 1 (UISO cells (VN-MCC); [7])	Area under the dose-response curve (AUC) UISO Replicate 2 (UISO cells (VN-MCC); [8])	Area under the dose-response curve (AUC) UISO Replicate 3 (UISO cells (VN-MCC); [9])	Area under the dose-response curve (AUC) MKL-1 Replicate 1 (MKL-1 cells (VP-MCC); [10])	Area under the dose-response curve (AUC) MKL-1 Replicate 2 (MKL-1 cells (VP-MCC); [11])	Area under the dose-response curve (AUC) MKL-1 Replicate 3 (MKL-1 cells (VP-MCC); [12])	Area under the dose-response curve (AUC) MKL-2 Replicate 1 (MKL-2 cells (VP-MCC); [13])	Area under the dose-response curve (AUC) MKL-2 Replicate 2 (MKL-2 cells (VP-MCC); [14])	Area under the dose-response curve (AUC) MKL-2 Replicate 3 (MKL-2 cells (VP-MCC); [15])	Area under the dose-response curve (AUC) MCC26 Replicate 1 (MCC26 cells (VN-MCC); [16])	Area under the dose-response curve (AUC) MCC26 Replicate 2 (MCC26 cells (VN-MCC); [17])	Area under the dose-response curve (AUC) MCC26 Replicate 3 (MCC26 cells (VN-MCC); [18])	Area under the dose-response curve (AUC) WAGA Replicate 1 (WAGA cells (VP-MCC))	Area under the dose-response curve (AUC) WAGA Replicate 2 (WAGA cells (VP-MCC))	further results
C[C@H]1CCC/C=C/[C@@H]2C[C@H](O)C[C@H]2[C@H](O)/C=C/C(=O)O1 [Cyanein]	224.1	259.2	236.6	216.1	230.2	238.1	206.3	227.9	213.5	208.9	220.0	232.6	238.6	217.1	214.7	231.7	265.8	194.4	–	–	–
C[n+]1cc2c3c(ccc2c2ccc4cc5c(cc4c21)OCO5)OCO3 [Sanguinarine]	–	–	–	–	–	–	–	–	–	–	–	–	–	–	–	–	–	–	371.2	384.9	Area under the dose-response curve (AUC) WAGA Replicate 3 (WAGA cells (VP-MCC)): 367.1; Area under the dose-response curve (AUC) MCC13 Replicate 1 (MCC13 cells (VN-MCC)): 361.4; Area under the dose-response curve (AUC) MCC13 Replicate 2 (MCC13 cells (VN-MCC)): 359.5; Area under the dose-response curve (AUC) MCC13 Replicate 3 (MCC13 cells (VN-MCC)): 378.6; Area under the dose-response curve (AUC) UISO Replicate 1 (UISO cells (VN-MCC)): 370.0; Area under the dose-response curve (AUC) UISO Replicate 2 (UISO cells (VN-MCC)): 363.9; Area under the dose-response curve (AUC) UISO Replicate 3 (UISO cells (VN-MCC)): 365.4; Area under the dose-response curve (AUC) MKL-1 Replicate 1 (MKL-1 cells (VP-MCC)): 358.8; Area under the dose-response curve (AUC) MKL-1 Replicate 2 (MKL-1 cells (VP-MCC)): 334.5; Area under the dose-response curve (AUC) MKL-1 Replicate 3 (MKL-1 cells (VP-MCC)): 363.7; Area under the dose-response curve (AUC) MKL-2 Replicate 1 (MKL-2 cells (VP-MCC)): 328.8; Area under the dose-response curve (AUC) MKL-2 Replicate 2 (MKL-2 cells (VP-MCC)): 346.3; Area under the dose-response curve (AUC) MKL-2 Replicate 3 (MKL-2 cells (VP-MCC)): 358.6; Area under the dose-response curve (AUC) MCC26 Replicate 1 (MCC26 cells (VN-MCC)): 339.9; Area under the dose-response curve (AUC) MCC26 Replicate 2 (MCC26 cells (VN-MCC)): 348.4; Area under the dose-response curve (AUC) MCC26 Replicate 3 (MCC26 cells (VN-MCC)): 364.0
O=c1c(O)c(-c2ccccc2)oc2cc(O)cc(O)c12 [GALANGIN]	517.0	423.5	495.5	501.1	489.1	476.8	448.5	479.0	418.3	418.0	452.0	473.1	358.3	486.3	480.7	408.8	418.1	468.3	–	–	–
N#CC(=C(/N)Sc1ccccc1N)/C(C#N)=C(\N)Sc1ccccc1N [U-0126]	550.5	484.0	458.9	475.9	463.7	403.4	414.2	403.9	361.8	488.8	473.7	468.2	434.1	447.4	479.4	467.3	454.7	472.7	–	–	–
CC[C@@]1(O)C(=O)OCc2c1cc1n(c2=O)Cc2cc3cc(O)ccc3nc2-1 [10-hydroxycamptothecin]	–	–	–	–	–	–	–	–	–	–	–	–	–	–	–	–	–	–	195.8	197.2	Area under the dose-response curve (AUC) WAGA Replicate 3 (WAGA cells (VP-MCC)): 184.4; Area under the dose-response curve (AUC) MCC13 Replicate 1 (MCC13 cells (VN-MCC)): 287.3; Area under the dose-response curve (AUC) MCC13 Replicate 2 (MCC13 cells (VN-MCC)): 291.9; Area under the dose-response curve (AUC) MCC13 Replicate 3 (MCC13 cells (VN-MCC)): 277.2; Area under the dose-response curve (AUC) UISO Replicate 1 (UISO cells (VN-MCC)): 187.9; Area under the dose-response curve (AUC) UISO Replicate 2 (UISO cells (VN-MCC)): 199.3; Area under the dose-response curve (AUC) UISO Replicate 3 (UISO cells (VN-MCC)): 183.4; Area under the dose-response curve (AUC) MKL-1 Replicate 1 (MKL-1 cells (VP-MCC)): 214.0; Area under the dose-response curve (AUC) MKL-1 Replicate 2 (MKL-1 cells (VP-MCC)): 217.0; Area under the dose-response curve (AUC) MKL-1 Replicate 3 (MKL-1 cells (VP-MCC)): 223.0; Area under the dose-response curve (AUC) MKL-2 Replicate 1 (MKL-2 cells (VP-MCC)): 184.7; Area under the dose-response curve (AUC) MKL-2 Replicate 2 (MKL-2 cells (VP-MCC)): 164.5; Area under the dose-response curve (AUC) MKL-2 Replicate 3 (MKL-2 cells (VP-MCC)): 246.0; Area under the dose-response curve (AUC) MCC26 Replicate 1 (MCC26 cells (VN-MCC)): 260.5; Area under the dose-response curve (AUC) MCC26 Replicate 2 (MCC26 cells (VN-MCC)): 244.0; Area under the dose-response curve (AUC) MCC26 Replicate 3 (MCC26 cells (VN-MCC)): 250.0
COc1cccc2c1C(=O)c1c(O)c3c(c(O)c1C2=O)C[C@@](O)(C(C)=O)C[C@@H]3O[C@H]1C[C@H](N)[C@H](O)[C@H](C)O1 [Daunorubicin]	–	–	–	–	–	–	–	–	–	–	–	–	–	–	–	–	–	–	254.8	263.7	Area under the dose-response curve (AUC) WAGA Replicate 3 (WAGA cells (VP-MCC)): 266.2; Area under the dose-response curve (AUC) MCC13 Replicate 1 (MCC13 cells (VN-MCC)): 326.2; Area under the dose-response curve (AUC) MCC13 Replicate 2 (MCC13 cells (VN-MCC)): 316.0; Area under the dose-response curve (AUC) MCC13 Replicate 3 (MCC13 cells (VN-MCC)): 313.0; Area under the dose-response curve (AUC) UISO Replicate 1 (UISO cells (VN-MCC)): 226.5; Area under the dose-response curve (AUC) UISO Replicate 2 (UISO cells (VN-MCC)): 238.3; Area under the dose-response curve (AUC) UISO Replicate 3 (UISO cells (VN-MCC)): 225.1; Area under the dose-response curve (AUC) MKL-1 Replicate 1 (MKL-1 cells (VP-MCC)): 228.6; Area under the dose-response curve (AUC) MKL-1 Replicate 2 (MKL-1 cells (VP-MCC)): 217.7; Area under the dose-response curve (AUC) MKL-1 Replicate 3 (MKL-1 cells (VP-MCC)): 240.0; Area under the dose-response curve (AUC) MKL-2 Replicate 1 (MKL-2 cells (VP-MCC)): 202.9; Area under the dose-response curve (AUC) MKL-2 Replicate 2 (MKL-2 cells (VP-MCC)): 215.3; Area under the dose-response curve (AUC) MKL-2 Replicate 3 (MKL-2 cells (VP-MCC)): 253.2; Area under the dose-response curve (AUC) MCC26 Replicate 1 (MCC26 cells (VN-MCC)): 309.1; Area under the dose-response curve (AUC) MCC26 Replicate 2 (MCC26 cells (VN-MCC)): 298.6; Area under the dose-response curve (AUC) MCC26 Replicate 3 (MCC26 cells (VN-MCC)): 273.9
CCN(CC)C(=S)SSC(=S)N(CC)CC [Disulfiram]	389.6	433.6	454.9	436.7	415.1	342.5	247.9	258.4	254.5	287.1	274.6	256.7	243.8	235.0	298.1	398.0	401.3	322.7	–	–	–
CC[C@H]1CN2CCc3cc(OC)c(OC)cc3[C@@H]2C[C@@H]1C[C@H]1NCCc2cc(OC)c(OC)cc21 [Emetine]	343.0	356.1	341.6	319.8	335.5	310.8	267.1	258.2	246.0	316.9	311.7	312.3	297.3	300.1	296.5	331.2	367.3	295.0	–	–	–
SP-600125	–	–	–	–	–	–	–	–	–	–	–	–	–	–	–	–	–	–	479.2	486.5	Area under the dose-response curve (AUC) WAGA Replicate 3 (WAGA cells (VP-MCC)): 468.4; Area under the dose-response curve (AUC) MCC13 Replicate 1 (MCC13 cells (VN-MCC)): 457.8; Area under the dose-response curve (AUC) MCC13 Replicate 2 (MCC13 cells (VN-MCC)): 483.0; Area under the dose-response curve (AUC) MCC13 Replicate 3 (MCC13 cells (VN-MCC)): 492.5; Area under the dose-response curve (AUC) UISO Replicate 1 (UISO cells (VN-MCC)): 425.2; Area under the dose-response curve (AUC) UISO Replicate 2 (UISO cells (VN-MCC)): 449.0; Area under the dose-response curve (AUC) UISO Replicate 3 (UISO cells (VN-MCC)): 462.0; Area under the dose-response curve (AUC) MKL-1 Replicate 1 (MKL-1 cells (VP-MCC)): 472.9; Area under the dose-response curve (AUC) MKL-1 Replicate 2 (MKL-1 cells (VP-MCC)): 491.9; Area under the dose-response curve (AUC) MKL-1 Replicate 3 (MKL-1 cells (VP-MCC)): 491.6; Area under the dose-response curve (AUC) MKL-2 Replicate 1 (MKL-2 cells (VP-MCC)): 447.3; Area under the dose-response curve (AUC) MKL-2 Replicate 2 (MKL-2 cells (VP-MCC)): 464.7; Area under the dose-response curve (AUC) MKL-2 Replicate 3 (MKL-2 cells (VP-MCC)): 498.4; Area under the dose-response curve (AUC) MCC26 Replicate 1 (MCC26 cells (VN-MCC)): 435.5; Area under the dose-response curve (AUC) MCC26 Replicate 2 (MCC26 cells (VN-MCC)): 426.6; Area under the dose-response curve (AUC) MCC26 Replicate 3 (MCC26 cells (VN-MCC)): 458.4
